Measurements published in patent publication US5439940A, “Benz[e]indene derivatives” (priority 1992, dated 1995).
Read-outs that look alike come from different tables or passages of the source.

Experiments:
[1] = Acute toxicity on mice (oral LD50); details: mouse, in vivo, 7 days observation, maximal dose 1000 mg/kg
Description: Mice belonging to the NMRI strain (body weight 20-25 g, both male and female) were used, 6 to 10 animals for each dose. The test compound was administered orally in a volume of 20 ml/kg. The applied maximal dose was 1000 mg/kg. […] The mice were kept in a plastic cage at room temperature. The animals got tap water and standard mouse fodder ad libitum. The toxicity data were determined by the aid of the method of Litchfield and Wilcoxon [Litchfield, J. T., Wilcoxon, F. W.: J. Pharmacol. Exp. Ther., 96, 99 (1949)].

shocks tolerated = assay: Anxiolytic effect (Vogel et al.); type: in vivo, rat (male Wistar); details: ip, 2 h; rat, intraperitoneal, two hours before testing; read-out: Anxiolytic effect MED
Description: The anxiolytic effect was tested by using the method of Vogel et al. Male Wistar rats of 160-180 g bodyweight were kept free of food and drinking water for 24 and 48 hours, respectively. Test and carrier substances were administered intraperitoneally two hours before testing. Animals within the experimental chamber were provided with drinking water through an inserted tube. After the animals' each twenty lapping for water the device emitted a 2 mA intensity electric shock through the drinking tube. During 5 minutes the shocks tolerated by the animals in order to quench their thirst were counted. The effect of treatment was expressed as the % increase of the tolerated shocks. The minimum effective dose (MED) was determined for each test compound [Voqel, J. R., Beer, B., Clody, D. E.: Psychopharmacologia (Berl.) 21, 1 (1971)].

catalepsy = assay: Catalepsy; type: in vivo, rat (Wistar); details: rat; for Catalepsy MED: scored from 60 minutes after dosing, four hours
Description: The extrapyramidal syndrome, the most important side effect limiting the application of the neuroleptic drugs in man, can be produced in experimental animals in the form of catalepsy. Our experiments in 150-160 g Wistar rats were performed according to Morpurgo. The catalepsy, appearing 60 minutes after dosing, was scored as follows. Both forelegs of each animal were put for 10 seconds onto a rubber stopper of 3 cm height, then for additional 10 seconds onto a same stopper of 9 cm height. […] The procedure was repeated in each 30 minutes during four hours, obtaining scores proportional to the degree of the catalepsy. Results were used to calculate the minimum effective dose [MED, the lowest dose resulting statistically significant alteration, c.f.: Morpurgo, C.: Arch. Int.

[2] = tested on: learned conditioned avoidance reflex; assay: Antipsychotic effect: inhibition of conditioned avoidance reflex (shuttle box); type: in vivo, rat (male Wistar); details: 1 h, read-out: Conditioned reflex ID50
Description: The antipsychotic (neuroleptic) effect was measured by the inhibition of the learned conditioned avoidance reflex. The male Wistar rats used for the study were of 120-150 g bodyweight at the commencement of learning. […] In response to a suitable warning stimulus, in order to avoid the punishing (unconditioned) stimulus, animals within the box passed through the gate from one part over the other. The warning, i.e. conditioned stimulus (CS), a white light (1 Hz) blinking for 15 seconds, was applied at the place of the actual animal existence. The unconditioned stimulus (US), in form of 0.6 mA intensity electric shock, was randomly applied to the paw during the last 5 seconds of the conditioned stimulus. Animal's movement during the CS and US from one part of the box over the other, was defined as avoidance and escape responses, respectively. Both responses ceased the actual stimulus and stopped the trial. The time elapsed until the next trial (intertrial interval, ITI) was 15 seconds. While one experiment was carried out daily, an experiment consisted of 80 trials. Learning efficiency was expressed as percentage of the successful to the total avoidances. […] Dosing was carried out once a week, one hour before the measurement in the shuttle box.

hexobarbital narcosis = assay: Hexobarbital narcosis potentiating effect on mice; type: in vivo, mouse; details: oral; for ED50: Mus musculus, 1 hour before hexobarbital 40 mg/kg i.v., sleeping time >2.5 times control, read-out: ED50 hexobarbital narcosis potentiation
Description: The hexobarbital narcosis potentiating effect was examined on mice. Groups consisting of 6 animals were used for each dose. The animals were treated orally with the test compound, whereby sleeping was induced 1 hour later by administering a 40 mg/kg i.v. dose of hexobarbital both to the test and control groups. […] ED50 values were calculated from the thus-transformed data [Kaergaard Nielsen C. et al., Arch. Int. Pharmacodyn. 2, 170 (1967)].

pentetrazole spasm = assay: Anticonvulsive activity: pentetrazole spasm inhibiting test; type: in vivo, mouse (NMRI); details: Mus musculus; mice, oral, 1 hour before pentetrazole 125 mg/kg i.p.; read-out: Inhibition of pentetrazole spasm, ED50
Description: The pentetrazole spasm inhibiting test was performed according to the modified method of Benziger and Hans. Groups of mice consisting of 6 animals each, belonging to the NMRI strain (body weight: 20-25 g), were treated orally with the compound to be tested and the vehicle without active agent, respectively. I hour after the treatment a dosage of 125 mg/kg of pentetrazole was administered to each animal, intraperitoneally, and the tonic spasm of the lower limb extensor was recorded [Benziger, R., Hans, D.: Arch. Int. Pharmacodyn., 167, 245 (1967)].
(§1) The ED50 values were determined according to the method of Litchfield and Wilcoxon.

nicotine spasm = assay: Anticonvulsive activity: inhibition of nicotine spasm and lethality; type: in vivo; details: Mus musculus, 1 h; mice, oral, one hour before nicotine 1.4 mg/kg i.v.
Description: The inhibition of nicotine spasm and lethality was examined on mice according to the method of Stone. One hour after the oral treatment a dosage of 1.4 mg/kg of nicotine is injected intravenously, and the spasm developed as well as the lethality within 1 hour were recorded at both the test and control groups. [Stone, C. C., Mecklenburg, K. L., Torchiana, M. L.: Arch. Int. Pharmacodyn., 117, 419 (1958)].
as §1

[3] = tested on: experimental coronary insufficiency; assay: Antianginal effect (glanduitrine-induced coronary insufficiency, Nieschultz); type: in vivo, rat (male); details: rat, glanduitrine 4 NE/kg i.v., T-wave; for inhibition in vivo at 2 mg/kg: Rat2, iv, read-out: Inhibition in a dose of 2 mg/kg; for ED50: iv
Description: The test was carried out on male rats weighing 180-220 g. The animals were narcotized with the aid of chloralose-urethane. ECG was registered by means of needle electrodes in standard II output. Antianginal effect was tested according to the method of Nieschultz. Experimental coronary insufficiency was induced by administering glanduitrine (4 NE/kg i.v.).

nervus ischiadicus = assay: Local analgesic effect (Truant d'Amato); type: in vivo; details: 0.2 ml injected around nervus ischiadicus
Description: The test was carried out according to the method of Truant d'Amato. 0.2 ml of test material was injected around the nervus ischiadicus in the middle of femur with a needle of 1 cm length. The criterion of analgesic effect was the lack of the motoric control of foot muscles. The duration of effect was registered and the 50 percentile effective concentration (EC50) was calculated on the basis of the dose-effect curve. Lidocain was used as reference substance Truant d'Amato, A. P., Wiedling, S.: Acta Chir. Scand., 116, 351 (1958)].

spontaneous motility = assay: Spontaneous motility inhibiting activity (Dews equipment); type: in vivo; details: Mus musculus, 0.5 h; oral, beam interruptions within 30 minutes; read-out: Motility inhibiting activity ID50
Description: The spontaneous motility inhibiting activity was examined according to the method of Borsy et al. Groups consisting of 3 mice each were treated orally with different doses of the compounds to be tested, then the test animals were placed in a Dews equipment. In this equipment the number of interruptions of infrared beam within 30 minutes was counted. […] [Borsy, J., Csanyi, E., Lazar, I.: Arch. Int.. Pharmacodyn. 124, 1 (1960)].

[4] = tested on: acetic acid writhing reactions; assay: Analgesic effect (acetic acid writhing, Newbould); type: in vivo, mouse (NMRI); details: Mus musculus, 1 h; mice, 0.75% acetic acid one hour after treatment; read-out: Analgesic effect ID50
Description: The characteristic "writhing reactions" were counted for a period of 5 minutes, starting from the fifth minute after challenge. […] Each group of animals consisted of at least 10 mice. […]

CNC1=Nc2ccc(Cl)cc2C(c2ccccc2)=[N+]([O-])C1 [Chlordiazepoxide, reference compound] showed an LD50 at 168 h [1] of 650 mg/kg and a minimal effective dose (shocks tolerated) of 2.5 mg/kg.
For CN(C)CCCN1c2ccccc2Sc2ccc(Cl)cc21 [Chlorpromazine, reference compound], the “Therapeutic index (Catalepsy MED / Conditioned Reflex ID50)” value (catalepsy) was 1.5, the “Catalepsy MED” value (catalepsy) was 20 mg/kg and the ED50 ([2]; Rattus norvegicus) was 13.2 mg/kg. It also gave an LD50 at 168 h [1] of 315 mg/kg.
In the case of CN(C)CCON=C1CCc2c1ccc1ccccc21 [Example 1, 3-[2-(N,N-Dimethylamino)-ethoxyimino]-2,3-dihydro-1H-benz[e]indene], the “effect observed in the given dose, hexobarbital narcosis potentiation” value (from here on “effect observed in the given dose”) (hexobarbital narcosis; dose 200 mg/kg) is reported as 100% and the LD50 at 168 h [1] is reported as 820 mg/kg.
CCN(CC)CCON=C1CCc2c1ccc1ccccc21 [Example 3, 3-[2-(N,N-Diethylamino)-ethoxyimino]-2,3-dihydro-1H-benz[e]indene] gave an ED50 (pentetrazole spasm) of 96 mg/kg, an ED50 (nicotine spasm) of 29 mg/kg and an LD50 at 168 h [1] of 640 mg/kg.
For CC(C)N(CCON=C1CCc2c1ccc1ccccc21)C(C)C [Example 4, 3-[2-(N-1-Methylethyl-2-propylamino)-ethoxyimino]-2,3-dihydro-1H-benz[e]indene], the inhibition in vivo at 2 mg/kg [3] was 100%, the ED50 [3] was 0.19 mg/kg and the “Local analgesic effect EC50” value (nervus ischiadicus) was 0.18%. The ED50 (nicotine spasm) was 4 mg/kg and the LD50 at 168 h [1] was 600 mg/kg.
For c1ccc2c3c(ccc2c1)C(=NOCCN1CCCC1)CC3 [Example 7, 3-[2-(N-Pyrpolidinyl)-ethoxyimino]-2,3-dihydro-1H-benz[e]indene], the “Local analgesic effect EC50” value (nervus ischiadicus) was 0.20% and the LD50 at 168 h [1] was 700 mg/kg.
For c1ccc2c3c(ccc2c1)C(=NOCCN1CCCCC1)CC3 [Example 8, 3-[2-(N-Piperidinyl)-ethoxyimlno]-2,3-dihydro-1H-benz[e]indene], the inhibition in vivo at 2 mg/kg [3] was 56%, the “effect observed in the given dose” value (hexobarbital narcosis; dose 100 mg/kg) was 67% and the LD50 at 168 h [1] was > 1000 mg/kg.
In the case of c1ccc2c3c(ccc2c1)C(=NOCCCN1CCCCC1)CC3 [Example 9, 3-[3-(N-Piperidinyl)-propoxyimino]-2,3-dihydro-1H-benz[e]indene], the “Local analgesic effect EC50” value (nervus ischiadicus) is reported as 0.20% and the LD50 at 168 h [1] is reported as 320 mg/kg.
With c1ccc2c3c(ccc2c1)C(=NOCCN1CCOCC1)CC3 [Example 11, 3-[2-(N-Morpholinoethoxyimino)]-2,3-dihydro-1H-benz[e]indene] the ED50 (pentetrazole spasm) was 84 mg/kg, the inhibition in vivo at 2 mg/kg [3] was 54% and the LD50 at 168 h [1] was > 1000 mg/kg.
Clc1cccc(N2CCN(CCCON=C3CCc4c3ccc3ccccc43)CC2)c1 [Example 12, 3-{3-[4-(3-Chlorophenyl)-1-piperazinyl]-propoxyimino}-2,3-dihydro-1H-benz[e]indene] gave an ED50 (pentetrazole spasm) of 30 mg/kg, an inhibition in vivo at 2 mg/kg [3] of 56% and an ED50 (spontaneous motility) of ~100 mg/kg. The “effect observed in the given dose” value (hexobarbital narcosis; dose 200 mg/kg) was 83% and the LD50 at 168 h [1] was > 1000 mg/kg.
For OCCN1CCN(CC(O)CON=C2CCc3c2ccc2ccccc32)CC1 (stereo not drawn) [Example 18, 3-{3-[4-(2-Hydroxyethyl)-1-piperazinyl]-2-hydroxypropoxyimino}-2,3-dihydro-1H-benz[e]indene], the inhibition in vivo at 2 mg/kg [3] was 59% and the LD50 at 168 h [1] was > 1000 mg/kg.
Work on COc1ccccc1N1CCN(CC(O)CON=C2CCc3c2ccc2ccccc32)CC1 (stereo not drawn) [Example 19, 3-{3-[4-(2-Methoxyphenyl)-1-piperazinyl]-2-hydroxypropoxyimino}-2,3-dihydro-1H-benz[e]indene] yielded an ED50 (spontaneous motility) of 43 mg/kg, an ED50 [4] of 65 mg/kg and an ED50 (hexobarbital narcosis) of 67 mg/kg. The LD50 at 168 h [1] was > 1000 mg/kg.
With O=C(NC1CCCCC1)ON=C1CCc2c1ccc1ccccc21 [Example 22, 3-(O-Cyclohexylcarbamoyl)-oxime-2,3-dihydro-1H-benz[e]indene] the inhibition in vivo at 2 mg/kg [3] was 59% and the LD50 at 168 h [1] was > 1000 mg/kg.
For CCN(CC)CC(=O)Nc1c(C)cccc1C [Lidocain, reference compound], the “Local analgesic effect EC50” value (nervus ischiadicus) was 0.19%.
Work on CCCC(C)(COC(N)=O)COC(N)=O [Meprobamate, reference compound] yielded an ED50 (spontaneous motility) of 232 mg/kg, an ED50 (hexobarbital narcosis) of 260 mg/kg and an LD50 at 168 h [1] of 1350 mg/kg. It also gave a minimal effective dose (shocks tolerated) of 25 mg/kg.
With CC(Cc1ccccc1)NCCC(c1ccccc1)c1ccccc1 (stereo not drawn) [Prenylamine, reference compound] the inhibition in vivo at 2 mg/kg [3] was 41% and the ED50 [3] was 6.6 mg/kg.
With CSc1ccc2c(c1)N(CCC1CCCCN1C)c1ccccc1S2 (stereo not drawn) [Thioridazine] the “Therapeutic index (Catalepsy MED / Conditioned Reflex ID50)” value (catalepsy) was 0.7, the “Catalepsy MED” value (catalepsy) was 80 mg/kg and the ED50 ([2]; rat, dosing one hour before measurement) was 108 mg/kg.
In the case of OC(CCN1CCCCC1)(c1ccccc1)C1CCCCC1 (stereo not drawn) [Trihexyphenidyl, reference compound], the ED50 (nicotine spasm) is reported as 20 mg/kg.
With CN1C(=O)OC(C)(C)C1=O [Trimethadione, reference compound] the ED50 (pentetrazole spasm) was 400 mg/kg.
